Results reported in US11926642B2, “Compounds and methods for the treatment of COVID-19” (priority 2020, dated 2024).
“And” between values parts separate entries of the source, which are not always exact repeats. Identical values can stand only once. Like-named read-outs stand apart in the source and are kept apart here.

Test system: MA15-CoV
Design: species or system mice
Conditions: mouse, in vivo; for decline in day 4 lung viral titers: sc

Compound: COc1cccc2[nH]c(C(=O)N[C@@H](CC(C)C)C(=O)N[C@@H](C[C@@H]3CCNC3=O)C(=O)CO)cc12 [parent compound, N-((1S)-1-{[((1S)-3-hydroxy-2-oxo-1-{[(3S)-2-oxopyrrolidin-3-yl]methyl}propyl)amino]carbonyl}-3-methylbutyl)-4-methoxy-1H-indole-2-carboxamide]
- reduction of lung viral titers on day 4 post-infection: ≈ 2.0 log 10 and ≈ 1.5 log 10 and ~1.0 log 10
- weight loss and histopathologic signs of disease: decreased
- weight loss caused by the virus: reduced
- decline in day 4 lung viral titers (30 mg/kg): ≈ 1.5 log 10
- decline in day 4 lung viral titers (100 mg/kg): ≈ 3 log 10
- decline in day 4 lung viral titers (300 mg/kg): ≥ 3.5 log 10
